We go through 27 compounds from patent US8785439B2, “2,5,7-substituted oxazolopyrimidine derivatives” (Sanofi, priority 2010, dated 2014).

This experiment addresses T1, human Edg-1 receptor (Homo sapiens, UniProt P21453).
T1 construct: FLAG (N); expressed in transfected cells; membrane preparation
In words: GTP-γ-S assay using human Edg-1 receptors (SPA, CHO Flp-In cell membrane preparation). The format is biochemical. The conditions noted are these: test compound at 10 μM, high control 10 μM S1P regarded as 100% activation, background-corrected, triplicate; for activation at 10 µM: read-out: % Activation (Edg-1 receptor activation in percent of the activation by 10 μM S1P). The source says: Determination of the Pharmacological Activity A) GTP-γ-S Assay Using Human Edg-1 Receptors
In order to determine the Edg-1 receptor activation by the compounds of the invention, a GTP-γ-S (guanosine 5′-[γ-thio]triphosphate) assay for G-protein coupled receptor binding based on the scintillation proximity assay principle was used, employing a cell membrane preparation from a CHO Flp-In cell line which constitutively overexpresses the human Edg-1 receptor.
The Flp-In™ expression system (Invitrogen, cat. no. K6010-01) allows the generation of stable mammalian cell lines into which the gene of interest has been integrated through homologous recombination at a specific genomic location called Flp Recombination Target (FRT) site by means of a Flp recombinase encoded by the pOG44 expression plasmid. The integration of the pcDNA5/FRT expression construct into the Flp-In host cell line genome results in the transcription of the gene of interest. The stably transfected cells become hygromycin-resistant.
One day prior to transfection, 200 000 Flp-In-CHO cells were seeded in Ham F-12 medium (Invitrogen, cat. no. 31765) supplemented with 10% fetal calf serum (FCS; Perbio Science, cat. no. SH30068.03) in a 6-well plate and incubated at 37° C./5% CO2 overnight. Using the FuGENE® 6 transfection reagent (Roche, cat. no. 11988387001), cells were cotransfected with the Flp recombinase expression plasmid pOG44 and a modified plasmid additionally containing the edg-1 gene (accession no. NM_001400) termed as pcDNA5-FRT-TO_nFLAG_DEST-EDG-1 with a 9:1 ratio. To obtain the modified pcDNA5-FRT-TO_nFLAG_DEST plasmid, the Invitrogen plasmid pcDNA5/FRT/TO (Invitrogen, cat. no. V6520-20) was adapted to the Gateway® (Invitrogen) cloning system by inserting a Gateway cassette containing attR recombination sites flanking a ccdB gene and a chloramphenicol-resistance gene (Gateway conversion system, Invitrogen, cat. no. 11828-029). In addition a FLAG tag epitope was added before the 5′ att recombination site to allow recombinant expression of N-terminally FLAG-tagged proteins.
For the transfection of one well, 1.08 μg of pOG44 and 0.12 μg of pcDNA5-FRT-TO_nFLAG_DEST-EDG-1 were mixed with 100 μl of serum-free Ham F-12 medium containing 6 μl of FuGENE® 6 transfection reagent. After 20 min of incubation, the transfection reagent/DNA complex was distributed dropwise on the cells. The cells were incubated for 24 h at 37° C. Then the cells from 3 wells each were transferred to a T75 flask (Greiner Cellstar®, cat. no. 658175) containing Ham F-12 medium supplemented with 10% of FCS but without antibiotic and were incubated another 24 h. 48 h after transfection, the medium was replaced by selection medium (Ham F-12 supplemented with 10% of FCS and 300 μg/ml of hygromycin B (Invitrogen, cat. no. 10687-010)). The medium was exchanged every 2 to 3 days until a resistant population of cells had grown. […] After 2 weeks of selection, the cells were transferred into T175 flasks (Greiner Cellstar®, cat. no. 660175) and cultivated for batch production. Cells were harvested from the culture flasks by short treatment (2 to 5 min) with Accutase (PAA, cat. no. L11-007), resuspended in selection medium (see above) and centrifuged at 200×g for 5 min. Cells were resuspended in a mixture of 90% of FCS and 10% of dimethylsulfoxide and stored frozen in liquid nitrogen.
A membrane preparation was obtained by standard methods from the afore-described CHO Flp-In cell line constitutively overexpressing the human Edg-1 receptor. Briefly, the cryopreserved cells were taken in culture and grown until confluency in T175 cell culture flasks (Becton Dickinson, cat. no. 35 5001). […]

T1 sequence (P21453 whole entry): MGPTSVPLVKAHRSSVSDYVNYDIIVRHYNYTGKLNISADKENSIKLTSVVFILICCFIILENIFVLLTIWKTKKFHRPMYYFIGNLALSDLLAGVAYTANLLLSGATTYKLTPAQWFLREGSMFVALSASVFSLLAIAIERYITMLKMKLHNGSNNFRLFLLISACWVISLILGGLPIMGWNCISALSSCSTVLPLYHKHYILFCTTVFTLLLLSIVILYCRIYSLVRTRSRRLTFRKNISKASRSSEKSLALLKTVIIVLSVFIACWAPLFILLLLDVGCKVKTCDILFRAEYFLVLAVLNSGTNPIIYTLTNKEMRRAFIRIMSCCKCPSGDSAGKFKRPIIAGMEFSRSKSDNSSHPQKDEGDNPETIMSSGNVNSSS

With `CCCOc1nc(Oc2ccccc2SC)nc2oc(-c3cccc(C)c3)nc12` [Example 139, 5-(2-methylsulfanyl-phenoxy)-7-propoxy-2-(3-methyl-phenyl)-oxazolo[5,4-d]pyrimidine], the activation at 10 µM is 120%.

Take `C=CCCCOc1nc(OCCC)c2nc(-c3cccc(C)c3)oc2n1` [Example 9, 5-Pent-4-enyloxy-7-propoxy-2-(3-methylphenyl)-oxazolo[5,4-d]pyrimidine]: the activation at 10 µM worked out at 87%.

As to `CCCOc1nc(Oc2c(Cl)cccc2Cl)nc2oc(-c3cccc(C)c3)nc12` [Example 86, 5-(2,6-dichloro-phenoxy)-7-propoxy-2-(3-methyl-phenyl)-oxazolo[5,4-d]pyrimidine], the activation at 10 µM was 98%.

For the compound `CCOc1nc(Oc2ccccc2F)nc2oc(-c3cc(C)c(O)c(C)c3)nc12` [Example 47, 4-[7-ethoxy-5-(2-fluoro-phenoxy)-oxazolo[5,4-d]pyrimidin-2-yl]-2,6-dimethyl-phenol], the activation at 10 µM is 119%.

Take `CCCOc1nc(Oc2cccc(S(N)(=O)=O)c2)nc2oc(-c3cccc(F)c3)nc12` [Example 23, 3-[2-(3-fluoro-phenyl)-7-propoxy-oxazolo[5,4-d]pyrimidin-5-yloxy]-benzenesulfonamide]: the activation at 10 µM came to 47%.

As for `CCCOc1nc(Oc2ccccc2)nc2oc(-c3cccc(C)c3)nc12` [Example 51, 5-phenoxy-7-propoxy-2-(3-methyl-phenyl)-oxazolo[5,4-d]pyrimidine], the activation at 10 µM turned out to be 110%.

Take `CCCOc1nc(Sc2ccccc2)nc2oc(-c3ccc(Cl)c(Cl)c3)nc12` [Example 156, 2-(3,4-dichloro-phenyl)-5-phenylsulfanyl-7-propoxy-oxazolo[5,4-d]pyrimidine]: the activation at 10 µM came to 40%.

`CCCOc1nc(Oc2ccc(=O)n(C)n2)nc2oc(-c3cc(F)ccc3Cl)nc12` [Example 114, 6-[2-(2-chloro-5-fluoro-phenyl)-7-propoxy-oxazolo[5,4-d]pyrimidin-5-yloxy]-2-methyl-2H-oyridazin-3-one]: the “% Activation (Edg-1 receptor activation in percent of the activation by 10 μM S1P)” value is recorded as 96%.

Regarding `Cc1cc(-c2nc3c(OC4COC4)nc(Oc4ccccc4F)nc3o2)cc(C)c1OC1COC1` [Example 49, 2-[3,5-dimethyl-4-(oxetan-3-yloxy)-phenyl]-5-(2-fluoro-phenoxy)-7-(oxetan-3-yloxy)-oxazolo[5,4-d]pyrimidine], the activation at 10 µM worked out at 123%.

Turning to `CCCOc1nc(Oc2ccccc2C(C)(C)C)nc2oc(-c3cccc(C)c3)nc12` [Example 96, 5-(2-tert-butyl-phenoxy)-7-propoxy-2-(3-methyl-phenyl)-oxazolo[5,4-d]pyrimidine], the activation at 10 µM worked out at 67%.

As for `CCCOc1nc(Oc2cccc(C)c2)nc2oc(-c3cccc(C)c3)nc12` [Example 98, 7-propoxy-2-(3-methyl-phenyl)-5-(3-methyl-phenyl)oxy-oxazolo[5,4-d]pyrimidine], the activation at 10 µM was found to be 107%.

On to `CCOc1nc(OCC2COC(C)(C)O2)nc2oc(-c3cccc(C)c3)nc12` (stereo not drawn) [Example 37, 5-(2,2-dimethyl-[1,3]dioxolan-4-ylmethoxy)-7-ethoxy-2-(3-methyl-phenyl)-oxazolo[5,4-d]pyrimidine], for which the activation at 10 µM amounted to 86%.

Regarding `CCCOc1nc(OC2CCOCC2)nc2oc(-c3cc(F)ccc3Cl)nc12` [Example 117, 2-(2-chloro-5-fluoro-phenyl)-7-propoxy-5-(tetrahydro-pyran-4-yloxy)-oxazolo[5,4-d]pyrimidine], the activation at 10 µM was determined as 63%.

For `CCCOc1nc(Oc2ccccc2)nc2oc(-c3cccc(F)c3)nc12` [Example 61, 2-(3-fluoro-phenyl)-5-phenoxy-7-propoxy-oxazolo[5,4-d]pyrimidine], the activation at 10 µM came out at 74%.

Turning to `Cc1cccc(-c2nc3c(OCC4CC4)nc(OC4COC4)nc3o2)c1` [Example 39, 7-cyclopropylmethoxy-5-(oxetan-3-yloxy)-2-(3-methyl-phenyl)-oxazolo[5,4-d]pyrimidine], the activation at 10 µM was determined as 47%.

With `CCCOc1nc(Oc2ccc(C(F)(F)F)cc2Cl)nc2oc(-c3cccc(C)c3)nc12` [Example 145, 5-(2-chloro-4-trifluoromethyl-phenoxy)-7-propoxy-2-(3-methyl-phenyl)-oxazolo[5,4-d]pyrimidine], the activation at 10 µM is 82%.

`CCCOc1nc(Oc2ccc(C)cc2C)nc2oc(-c3cccc(C)c3)nc12` [Example 53, 5-(2,4-dimethyl-phenoxy)-7-propoxy-2-(3-methyl-phenyl)-oxazolo[5,4-d]pyrimidine]: the activation at 10 µM was 73%.

Regarding `Cc1cccc(-c2nc3c(OCC4CC4)nc(SC4CCS(=O)(=O)C4)nc3o2)c1` (stereo not drawn) [Example 28, 7-cyclopropylmethoxy-5-(1,1-dioxo-tetrahydro-1lambda6-thiophen-3-ylsulfanyl)-2-(3-methyl-phenyl)-oxazolo[5,4-d]pyrimidine], the activation at 10 µM stood at 69%.

In the case of “5-(2-fluoro-phenoxy)-2-(1-oxy-pyridin-3-yl)-7-propoxy-oxazolo[5,4-d]pyrimidine [Example 109]”, the “% Activation (Edg-1 receptor activation in percent of the activation by 10 μM S1P)” value turned out to be 108%.

On to `CCCOc1nc(Oc2ccc(Cl)cc2OC)nc2oc(-c3cccc(F)c3)nc12` [Example 60, 5-(4-chloro-2-methoxy-phenoxy)-2-(3-fluoro-phenyl)-7-propoxy-oxazolo[5,4-d]pyrimidine], for which the activation at 10 µM is 80%.

As for `CCCOc1nc(Sc2nccs2)nc2oc(-c3cc(F)ccc3Cl)nc12` [Example 59, 2-(2-chloro-5-fluoro-phenyl)-7-propoxy-5-(thiazol-2-ylsulfanyl)-oxazolo[5,4-d]pyrimidine], the activation at 10 µM is 103%.

As for `CCOc1nc(Oc2cc(C)nn2C)nc2oc(-c3cccc(C)c3)nc12` [Example 26, 5-(2,5-dimethyl-2H-pyrazol-3-yloxy)-7-ethoxy-2-(3-methyl-phenyl)-oxazolo[5,4-d]pyrimidine], the activation at 10 µM came to 101%.

For `CCCOc1nc(O[C@H]2CCCC[C@@H]2F)nc2oc(-c3cccc(F)c3)nc12` [Example 48, 5-((1S,2S)-2-fluoro-cyclohexyloxy)-2-(3-fluoro-phenyl)-7-propoxy-oxazolo[5,4-d]pyrimidine], the activation at 10 µM is 105%.

`CCCOc1nc(OC2CCOCC2)nc2oc(-c3cccc(C)c3)nc12` [Example 71, 7-propoxy-5-(tetrahydro-pyran-4-yloxy)-2-(3-methyl-phenyl)-oxazolo[5,4-d]pyrimidine]: the activation at 10 µM was determined as 102%.

As to `CCCOc1nc(Sc2cc(F)ccc2C)nc2oc(-c3cc(F)ccc3Cl)nc12` [Example 153, 2-(2-chloro-5-fluoro-phenyl)-5-(5-fluoro-2-methyl-phenylsulfanyl)-7-propoxy-oxazolo[5,4-d]pyrimidine], the activation at 10 µM was 108%.

Consider `CCCOc1nc(Oc2ccc(C)cc2F)nc2oc(-c3cccc(C)c3)nc12` [Example 111, 5-(2-fluoro-4-methyl-phenoxy)-7-propoxy-2-(3-methyl-phenyl)-oxazolo[5,4-d]pyrimidine], for which the activation at 10 µM amounted to 88%.

On to `CCCOc1nc(Oc2ccc(OC(F)(F)F)c(Cl)c2)nc2oc(-c3cccc(C)c3)nc12` [Example 52, 5-(3-chloro-4-trifluoromethoxy-phenoxy)-7-propoxy-2-(3-methyl-phenyl)-oxazolo[5,4-d]pyrimidine], for which the activation at 10 µM was 51%.
